Source: US7223543B2, “Conjugated linoleic acid isomerase and a process for the production of conjugated linoleic acid” (Teagasc Dairy Products Research Centre, priority 2001, dated 2007)

Tested on: B.breve 2258
Assay: Growth inhibition of B.breve 2258 by trilinolein compared with free linoleic acid
Format: cell-based, Bifidobacterium breve
Conditions: compared with similar concentrations of free linoleic acid
Description: B.breve NCFB 2258 was further investigated for ability to utilise triglyceride bound linoleic acid as substrate for CLA production. B.breve NCFB 2258 was inoculated from a fully grown culture into MRS broth with added cysteine (0.05%) and trilinolein (C18:2, cis-9, cis-12, 99% pure, Sigma Chemical Co.), soybean oil and sunflower oil (purchased from a local grocery store) containing known linoleic acid concentrations. The triglyceride mixtures were sterile-filtered through 0.45 μm […] filters and added as 5 mg/ml aqueous solutions in 2.5% (v/v) Tween 80. Substantial vortexing was required to dissolve the fat particles. The volume of the triglyceride stock solutions added was calculated to give a final concentration of 0.2 mg linoleic acid/ml of broth. B.breve 2258 was inoculated into MRS broth in the presence of the triglyceride substrates under anaerobic conditions at 37° C. and incubated for 48 h.

CCCCC/C=C\C/C=C\CCCCCCCC(=O)OCC(COC(=O)CCCCCCC/C=C\C/C=C\CCCCC)OC(=O)CCCCCCC/C=C\C/C=C\CCCCC [trilinolein]
growth inhibition of B.breve 2258: did not inhibit the growth of B.breve 2258 to the same extent as similar concentrations of free linoleic acid
